Columns and labels:
[1] = system: diabetic cataract in the rat; assay: Action on the appearance of the diabetic cataract (rat); format: in vivo; conditions: for appearance of the diabetic cataract: Table 5, 25 mg/kg/die per os
Method: (§1) With the compound bearing the abbreviation ARI 6 the following tests have been carried out in the rat and in the rabbit.
Action on the appearance of the diabetic cataract (rat).
Effects of the administration of ARI 6 (25 mg/kg/die, per os)
on the appearance of the diabetic cataract in the rat.
The values are expressed as percentages. Within brackets there are indicated the animals for each group.
Effects of the administration of ARI-1 (25 mg/kg/die, per os)

rat = assay: Toxicity per oral administration repeated in the rat (30 days); format: in vivo; conditions: 30 days, 100, 200, 300 mg/kg/die
From the text: Toxicity per oral administration repeated in the rat (30 days)--Test protocol:
Compound Doses mg/kg/die

[2] = system: galactosemic cataract in the rat; assay: Action on the appearance of the galactosemic cataract (rat); format: in vivo; design: appearance of the galactosemic cataract: unit not given here
Method: as §1
Action on the appearance of the galactosemic cataract (rat)
Effects of the administration of ARI-6 (5 and 25 mg/kg/die, os)
on the appearance of the galactosemic cataract in the rat.
[…] In the brackets the number of animals for each group is indicated.
The diet contains D-galactose 50%.
Effects of the administration of ARI-1 (5 and 25 mg/kg/die, os)

[3] = Acute toxicity of ARI 6 in the rat; conditions: in vivo
aldose reductase = target: T1, aldose reductase (Bos taurus, UniProt P16116); assay: In vitro inhibition of aldose reductase activity of raw extracts from bovine crystalline lens; format: biochemical; conditions: glyceraldehyde substrate, NADPH, pH 6.8, 37° C.; read-out: IC50 on the aldose reductase activity of raw extracts originating from bovine crystalline lens
T1 construct: 4 bovine crystalline lenses (8 g) are homogenized by means of Potter in ice bath; from tissue; host or cells: bovine crystalline lens
Method: "In vitro" tests have been carried out to evalute the inhibition of the aldose reductase activity, prepared from the extract of bovine crystalline lenses.
PREPARATION OF THE RAW EXTRACTS
4 bovine crystalline lenses (8 g) are homogenized by means of Potter in ice bath with 40 ml of 50 mM phosphate buffer, pH 6.8, containing 2-mercaptoethanol pH ([…]). After centrifugation (12.000×g -20 min-4° C.) the supernatant is brought to 40% saturation with an ammonium sulphate and centrifugated again (14.000×g). The supernatant is then brought to the 80% saturation ((NH4)2 SO4) and, after centrifugation for 20 minutes and at 14.000×g, the sedimented matter is recovered and suspended in 7 ml of phosphate buffer. The enzymatic preparation is dialyzed by ultrafiltration with AMICON ultrafiltration cell.
DOSAGE OF THE ENZYMATIC ACTIVITY
The reference cuvette contains all the several substances apart from the substrate.

[4] = Acute toxicity of ARI 6 in the mouse; conditions: in vivo

SMILES: CN(CC(=O)O)S(=O)(=O)c1ccc2oc3ccc(Cl)cc3c(=O)c2c1 [ARI 6, 7-chloro-2 (N-methyl-N-carboxymethyl) sulfamoylxanthone]
- appearance of the diabetic cataract ([1]; day 5 from streptozotocine): 0.0%
- appearance of the diabetic cataract ([1]; day 10 from streptozotocine): 0.0%
- appearance of the diabetic cataract ([1]; day 15 from streptozotocine): 0.0%
- appearance of the diabetic cataract ([1]; day 20 from streptozotocine): 0.0%
- appearance of the diabetic cataract ([1]; day 25 from streptozotocine): 0.0%
- appearance of the diabetic cataract ([1]; day 30 from streptozotocine): 0.0%
- appearance of the diabetic cataract ([1]; day 35 from streptozotocine): 0.0%
- appearance of the diabetic cataract ([1]; day 40 from streptozotocine): 20.0%
- appearance of the diabetic cataract ([1]; day 45 from streptozotocine): 30.0%
- appearance of the diabetic cataract ([1]; day 50 from streptozotocine): 100.0%
- delay of the appearance of the diabetic cataract ([1]; rat, 25 mg/kg, vs controls): about 30 days
- Microscope and hystomorphological examination (rat): no alteration
- death (rat): No death
- Behaviour and general status (rat; vs control group): no variation with respect to the control group
- Biochemical and hematological parameters (rat; vs controls): no significant variation with respect to the controls
- appearance of the galactosemic cataract ([2]; Table 4, 5 mg/kg/die os, day 5 of diet): 0.0
- appearance of the galactosemic cataract ([2]; Table 4, 5 mg/kg/die os, day 10 of diet): 0.0
- appearance of the galactosemic cataract ([2]; Table 4, 5 mg/kg/die os, day 15 of diet): 0.0
- appearance of the galactosemic cataract ([2]; Table 4, 5 mg/kg/die os, day 20 of diet): 0.0
- appearance of the galactosemic cataract ([2]; Table 4, 5 mg/kg/die os, day 25 of diet): 15.0
- appearance of the galactosemic cataract ([2]; Table 4, 5 mg/kg/die os, day 30 of diet): 20.0
- appearance of the galactosemic cataract ([2]; Table 4, 5 mg/kg/die os, day 35 of diet): 40.0
- appearance of the galactosemic cataract ([2]; Table 4, 5 mg/kg/die os, day 40 of diet): 100.0
- appearance of the galactosemic cataract ([2]; Table 4, 5 mg/kg/die os, day 45 of diet): 100.0
- appearance of the galactosemic cataract ([2]; Table 4, 5 mg/kg/die os, day 50 of diet): 100.0
- appearance of the galactosemic cataract ([2]; Table 4, 25 mg/kg/die os, day 5 of diet): 0.0
- appearance of the galactosemic cataract ([2]; Table 4, 25 mg/kg/die os, day 10 of diet): 0.0
- appearance of the galactosemic cataract ([2]; Table 4, 25 mg/kg/die os, day 15 of diet): 0.0
- appearance of the galactosemic cataract ([2]; Table 4, 25 mg/kg/die os, day 20 of diet): 0.0
- appearance of the galactosemic cataract ([2]; Table 4, 25 mg/kg/die os, day 25 of diet): 0.0
- appearance of the galactosemic cataract ([2]; Table 4, 25 mg/kg/die os, day 30 of diet): 0.0
- appearance of the galactosemic cataract ([2]; Table 4, 25 mg/kg/die os, day 35 of diet): 0.0
- appearance of the galactosemic cataract ([2]; Table 4, 25 mg/kg/die os, day 40 of diet): 15.0
- appearance of the galactosemic cataract ([2]; Table 4, 25 mg/kg/die os, day 45 of diet): 25.0
- appearance of the galactosemic cataract ([2]; Table 4, 25 mg/kg/die os, day 50 of diet): 100.0
- delay for the appearance of the galactosemic cataract ([2]; rat, 5 mg/kg, vs controls): about 20 days
- effect on appearance of the galactosemic cataract (in words) ([2]; rat, higher doses): A more intense effect
- LD50 ([3]; ip, read-out: Acute toxicity in the rat ip): 1000 mg/kg
- LD50 ([3]; po, per os, read-out: Acute toxicity in the rat per os): 1000 mg/kg
- IC50 (aldose reductase): 9.2 µM
- LD50 ([4]; ip, read-out: Acute toxicity in the mouse ip): 1000 mg/kg
- LD50 ([4]; po, per os, read-out: Acute toxicity in the mouse per os): 1000 mg/kg

From patent US5066676A, “Sulfonamido derivative inhibiting the aldose reductase enzyme system and pharmaceutical compositions containing them” (Laboratori Baldacci SpA, priority 1987, dated 1991)
